Test results: ChEMBL document CHEMBL1148067, “Khusimol, a non-peptide ligand for vasopressin V1a receptors” (J Nat Prod, 1994)
Calls of active or inactive are those of the source. The calls are words filed in the database; no cut-off is given here.

Legend:
Vasopressin V1a receptor [1] = target: Vasopressin V1a receptor (Homo sapiens, UniProt P37288); assay: Binding affinity to vasopressin V1a receptor
[2] = target: Vasopressin V1a receptor (Rattus norvegicus) (UniProt P30560); assay: Displacement of [3H]AVP from vasopressin V1a receptor in rat liver membrane at 25 uM by competitive displacement assay; type: cell membranes
Sequence of Vasopressin V1a receptor (Rattus norvegicus) (P30560 whole entry, looked up): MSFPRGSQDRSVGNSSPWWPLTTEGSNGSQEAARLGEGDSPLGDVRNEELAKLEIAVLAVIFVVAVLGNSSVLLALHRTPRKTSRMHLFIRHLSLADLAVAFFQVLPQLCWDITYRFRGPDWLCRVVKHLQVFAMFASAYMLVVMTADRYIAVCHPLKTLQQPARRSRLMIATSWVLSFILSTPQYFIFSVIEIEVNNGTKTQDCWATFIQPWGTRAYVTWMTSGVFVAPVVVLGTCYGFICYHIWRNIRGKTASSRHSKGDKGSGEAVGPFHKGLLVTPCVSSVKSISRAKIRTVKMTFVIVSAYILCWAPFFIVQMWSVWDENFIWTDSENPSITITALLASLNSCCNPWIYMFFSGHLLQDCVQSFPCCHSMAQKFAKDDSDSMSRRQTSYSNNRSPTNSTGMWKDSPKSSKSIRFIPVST

Vasopressin V1a receptor [3] = target: T1, Vasopressin V1a receptor (Rattus norvegicus, UniProt P30560); assay: Displacement of [3H]AVP from vasopressin V1a receptor in rat liver membrane; type: cell membranes
T1 sequence (P30560 whole entry): as the sequence (P30560 whole entry, looked up) above

Vasopressin V1a receptor [4] = target: T1, Vasopressin V1a receptor; assay: Displacement of [3H]AVP from vasopressin V1a receptor in rat liver membrane by competitive displacement assay; type: cell membranes
[5] = target: Vasopressin V1a receptor (Rattus norvegicus) (UniProt P30560); assay: Displacement of [3H]AVP from vasopressin V1a receptor in rat liver membrane at 50 uM by competitive displacement assay; type: cell membranes

Sequence of Vasopressin V1a receptor (Homo sapiens, UniProt P37288) (P37288 whole entry): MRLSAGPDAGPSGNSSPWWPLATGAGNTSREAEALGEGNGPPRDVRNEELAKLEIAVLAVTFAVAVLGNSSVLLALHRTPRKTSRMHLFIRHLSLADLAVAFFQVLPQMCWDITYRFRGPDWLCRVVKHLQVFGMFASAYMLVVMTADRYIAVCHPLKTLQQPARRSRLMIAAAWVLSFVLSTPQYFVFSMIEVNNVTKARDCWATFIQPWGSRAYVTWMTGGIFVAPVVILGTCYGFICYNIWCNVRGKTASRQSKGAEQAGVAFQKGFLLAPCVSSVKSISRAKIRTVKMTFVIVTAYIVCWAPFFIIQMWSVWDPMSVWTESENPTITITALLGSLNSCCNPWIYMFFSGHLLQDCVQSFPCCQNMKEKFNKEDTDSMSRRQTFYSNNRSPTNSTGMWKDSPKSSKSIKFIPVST

inhibition [2] | IC50 (Vasopressin V1a receptor [3]) [µM] | Ki (Vasopressin V1a receptor [3]) [µM] | Ki (Vasopressin V1a receptor [4]) [µM] | inhibition [5] | Structure (SMILES) | Ki (Vasopressin V1a receptor [1]) [µM]
– | – | – | – | – | CC(=O)NCCCOc1ccc(C(=O)N2CCC(N3C(=O)CCc4ccccc43)CC2)cc1 | 0.35
Active | 125 | 41 | 53 | Active | C=C1[C@H]2CC[C@H](CO)[C@@]23CC[C@H](C3)C1(C)C [KHUSIMOL] | –
